Source: patent US11045507B2, “Bifidobacterium animalis AMT30 strain and the composition containing the strain of Bifidobacterium animalis AMT30” (priority 2019, dated 2021)

System: Bifidobacterium animalis AMT30
Experiment: Ability of Bifidobacterium animalis AMT30 to grow in the presence of selected antibiotics (shared cultures, Garche's liquid medium)
Format: cell-based
Conditions: for growth of AMT30 in the presence of the antibiotic (in words): 24 h shared culture, relative to control culture or inoculum; for The number of B. animalis AMT30 after 24 hours of incubation: inoculum AMT30 4.9 × 10^6 cfu/ml, antibiotic at concentration corresponding to the animal dose per kg b.w., control without antibiotic 2.4 × 10^9
Protocol: Studies on the ability to grow of Bifidobacterium animalis AMT30 in the presence on 20 selected antibiotics were performed using shared cultures method. For this purpose Garche's liquid medium was inoculated with both Bifidobacterium animalis AMT30 in an amount of 4.9×10^6 colony forming units/ml and one of 20 antibiotics in concentration corresponding to an antibiotic dose used in animal treatment per kilogram of body weight. The culture was carried out in three parallel tubes under anaerobic conditions at 37° C. for 24 hours. In addition, parallel control culture of the studied strain without presence of selected antibiotics was carried out. The number of the live cells was determined directly after inoculation and after 24 hours. Incubation of bacteria on Petri dishes was carried out at 37° C. for 48 hours under anaerobic conditions (sealed jar with GasPack AN0025A cartridge, Oxoid).

Compound	growth of AMT30 in the presence of the antibiotic (in words)	The number of B. animalis AMT30 after 24 hours of incubation
CCCc1ncc(C[n+]2ccccc2C)c(N)n1 [Amprolium]	Outstanding activity to multiply	
COC(=O)Nc1nc2cc(C(=O)c3ccc(F)cc3)ccc2[nH]1 [Flubendazole]	Outstanding activity to multiply	
c1ccc([C@H]2CN3CCSC3=N2)cc1 [Levamisole]	Outstanding activity to multiply	
Nc1ccc(S(=O)(=O)[N-]c2cncc(Cl)n2)cc1.[Na+] [Sodium sulfachloropyrazine]	Outstanding activity to multiply	2.4 × 10^9 cfu/ml
CC[C@H]1OC(=O)C[C@@H](O)[C@H](C)[C@@H](O[C@@H]2O[C@H](C)[C@@H](O)[C@H](N(C)C)[C@H]2O)[C@@H](CCN2C[C@H](C)C[C@H](C)C2)C[C@@H](C)C(=O)/C=C/C(C)=C/[C@@H]1CO[C@@H]1O[C@H](C)[C@@H](O)[C@@H](OC)[C@H]1OC [Tilmicosin]	remained at the level of inoculum	
Cc1cc(-n2c(=O)[nH]c(=O)n(C)c2=O)ccc1Oc1ccc(SC(F)(F)F)cc1 [Toltrazuril]	Outstanding activity to multiply	
CC[C@H]1OC(=O)C[C@@H](O)[C@H](C)[C@@H](O[C@@H]2O[C@H](C)[C@@H](O[C@H]3C[C@@](C)(O)[C@@H](O)[C@H](C)O3)[C@H](N(C)C)[C@H]2O)[C@@H](CC=O)C[C@@H](C)C(=O)/C=C/C(C)=C/[C@@H]1CO[C@@H]1O[C@H](C)[C@@H](O)[C@@H](OC)[C@H]1OC [Tylosin]	remained at the level of inoculum	
CC[C@H]1OC(=O)C[C@@H](OC(C)=O)[C@H](C)[C@@H](O[C@@H]2O[C@H](C)[C@@H](O[C@H]3C[C@@](C)(O)[C@@H](OC(=O)CC(C)C)[C@H](C)O3)[C@H](N(C)C)[C@H]2O)[C@@H](CC=O)C[C@@H](C)C(=O)/C=C/C(C)=C/[C@@H]1CO[C@@H]1O[C@H](C)[C@@H](O)[C@@H](OC)[C@H]1OC [Tylvalosin]		3.2 × 10^5 cfu/ml
Colistin	Outstanding activity to multiply	1.9 × 10^9 cfu/ml
Neomycin	Outstanding activity to multiply	3.3 × 10^7 cfu/ml
